Assay results from paper PMC12678337, “EAR-20 peptide, a novel NMDA receptor positive allosteric modulator” (Frontiers in Pharmacology, 2025).
No end group written: not given here.

Experiments:
[1] = test system: GluN2B-containing di-heteromers; conditions: ref Kellner and Berlin, 2024; cited from earlier work
[2] = test system: triheteromeric NMDARs (GluN1, GluN2A, GluN2B); conditions: cited from earlier work
[3] = test system: synaptic NMDARs, cultured hippocampal neurons; format: cell-based, rat
NMDARs = test system: NMDARs; parameters: method as in 3 sources, one per row (each row's own in cited_ref): ref Johnson and Ascher, 1987 ||| ref Chopra et al., 2015 ||| ref Lerma, 1992; conditions: cited from earlier work
GluN1-GluN2A receptors = conditions: channel blocker; ref Wang et al., 2021; cited from earlier work
GluN1-GluN2B = molecular target: T1, GluN1-GluN2B (Rattus norvegicus, UniProt P35439+Q00960); format: cell-based
T1 construct: GFP (N); expressed in transfected cells; host or cells: HEK-293T
T1 sequence (Q00960 27-1482, other chains not shown): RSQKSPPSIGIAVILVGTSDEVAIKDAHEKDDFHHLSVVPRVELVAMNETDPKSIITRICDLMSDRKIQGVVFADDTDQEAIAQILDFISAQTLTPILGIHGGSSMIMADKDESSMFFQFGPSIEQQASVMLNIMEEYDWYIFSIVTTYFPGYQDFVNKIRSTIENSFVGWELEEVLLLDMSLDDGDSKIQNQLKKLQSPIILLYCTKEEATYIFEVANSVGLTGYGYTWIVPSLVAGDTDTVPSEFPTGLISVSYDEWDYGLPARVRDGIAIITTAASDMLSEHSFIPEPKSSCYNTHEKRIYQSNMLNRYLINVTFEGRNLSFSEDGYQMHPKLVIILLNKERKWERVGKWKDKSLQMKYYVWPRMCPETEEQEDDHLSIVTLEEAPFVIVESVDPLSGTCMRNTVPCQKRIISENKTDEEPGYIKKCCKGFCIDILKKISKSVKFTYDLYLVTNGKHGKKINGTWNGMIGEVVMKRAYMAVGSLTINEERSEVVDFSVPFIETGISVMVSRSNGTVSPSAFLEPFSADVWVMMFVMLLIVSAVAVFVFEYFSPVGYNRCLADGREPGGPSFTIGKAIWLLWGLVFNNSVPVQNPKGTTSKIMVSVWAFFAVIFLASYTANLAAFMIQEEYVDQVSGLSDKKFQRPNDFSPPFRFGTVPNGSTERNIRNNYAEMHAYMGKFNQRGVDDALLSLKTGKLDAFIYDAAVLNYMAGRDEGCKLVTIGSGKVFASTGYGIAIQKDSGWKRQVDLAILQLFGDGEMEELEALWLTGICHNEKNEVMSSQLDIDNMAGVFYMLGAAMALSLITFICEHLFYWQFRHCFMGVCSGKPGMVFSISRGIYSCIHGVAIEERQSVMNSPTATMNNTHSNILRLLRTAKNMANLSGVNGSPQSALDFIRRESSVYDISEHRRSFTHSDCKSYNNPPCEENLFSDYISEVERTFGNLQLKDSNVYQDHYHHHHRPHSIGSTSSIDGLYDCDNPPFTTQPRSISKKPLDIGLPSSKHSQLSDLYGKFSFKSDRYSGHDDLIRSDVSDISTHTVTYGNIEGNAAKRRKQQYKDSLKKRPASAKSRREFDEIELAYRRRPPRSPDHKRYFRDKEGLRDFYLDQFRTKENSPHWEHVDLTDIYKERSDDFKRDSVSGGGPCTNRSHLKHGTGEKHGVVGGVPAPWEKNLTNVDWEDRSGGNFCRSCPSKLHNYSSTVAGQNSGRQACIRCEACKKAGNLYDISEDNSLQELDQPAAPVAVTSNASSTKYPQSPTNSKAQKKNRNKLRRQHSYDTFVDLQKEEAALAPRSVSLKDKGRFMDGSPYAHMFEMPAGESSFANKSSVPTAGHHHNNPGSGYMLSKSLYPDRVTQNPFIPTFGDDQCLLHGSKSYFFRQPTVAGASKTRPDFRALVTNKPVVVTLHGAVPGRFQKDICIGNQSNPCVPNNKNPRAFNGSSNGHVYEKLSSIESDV

GluN1-GluN2B^ΔNTD = assay: whole-cell patch clamp, ifenprodil inhibition of NTD-deleted GluN1-GluN2B; format: cell-based; conditions: 10 µM ifenprodil co-applied with agonists; HEK-293

Compound: NCCCNCCCCNCCCN [spermine]
- potentiation of GluN2B-containing di-heteromers [1]: strongly potentiates GluN2B-containing di-heteromers
- enhancement of triheteromeric NMDARs ([2]; ref Kellner and Berlin, 2024): fails to enhance triheteromeric NMDARs

Compound: CC12CC3CC(C)(C1)CC(N)(C3)C2 [memantine]
- effect on EPSCs [3]: abolished
- affinity for triheteromeric NMDARs ([2]; compared to NMDARs containing only GluN2B, ref Chen et al., 2020): lower affinity for triheteromeric NMDARs

Compound: Con-G: marine cone snail toxin, NMDAR antagonist targeting the GluN2B ligand binding domain (GEEELQENQELIREKSN; not fully specified (residues 3, 4, 7, 10, 14, C-terminus); ends and bridges not checked; UniProt P07231 81-97, looked up)
- NMDAR activity (NMDARs): NMDAR antagonist

Compound: Nc1c2ccccc2nc2ccccc12 [9-aminoacridine]
- current following removal (GluN1-GluN2A receptors): a transient inward current

Compound: N[C@@H](CCC(=O)O)C(=O)O [glutamate, L-glutamate, reference compound]
- response to glutamate alone (GluN1-GluN2B): generated a significant current response
- activation by glutamate alone (NMDARs; ref Johnson and Ascher, 1987): slightly activate the channel

Compound: pregnenolone sulfate
- tail-like response on removal of modulator (NMDARs): tail-like response

Compound: CC(C(O)c1ccc(O)cc1)N1CCC(Cc2ccccc2)CC1 (stereo not shown) [ifenprodil]
- inhibition of agonist-evoked current (GluN1-GluN2B^ΔNTD): no inhibitory effect was observed
